In publication PMC6362118, “Pharmacophore-guided discovery of CDC25 inhibitors causing cell cycle arrest and tumor regression” (Scientific Reports, 2019):
Each block holds one molecule with its values, some of them ahead of it.

Experiments:
DUSP22 = assay: Compound profiling, phosphatase panel (Eurofins); format: biochemical; conditions: relative to DMSO
Text: (§1) 125 Compound profiling - Selected compounds were profiled against a panel of protein
(§2) 126 phosphatases at Eurofins Pharma Discovery Services Ltd., Dundee, UK.

MKP5 (DUSP10) = assay: Compound profiling, phosphatase panel (Eurofins); format: biochemical; conditions: relative to DMSO
Text: as §1, §2

PP2A = assay: Compound profiling, phosphatase panel (Eurofins); format: biochemical; conditions: relative to DMSO
Text: as §1, §2

PTPN1 (PTP1B) = assay: Compound profiling, phosphatase panel (Eurofins); format: biochemical; conditions: relative to DMSO
Text: as §1, §2

PTPN11 (SHP-2) = assay: Compound profiling, phosphatase panel (Eurofins); format: biochemical; conditions: relative to DMSO
Text: as §1, §2

PTPN2 (TCPTP) = assay: Compound profiling, phosphatase panel (Eurofins); format: biochemical; conditions: relative to DMSO
Text: as §1, §2

PTPN22 = assay: Compound profiling, phosphatase panel (Eurofins); format: biochemical; conditions: relative to DMSO
Text: as §1, §2

PTPN4 (MEG1) = assay: Compound profiling, phosphatase panel (Eurofins); format: biochemical; conditions: relative to DMSO
Text: as §1, §2

PTPN6 (SHP-1) = assay: Compound profiling, phosphatase panel (Eurofins); format: biochemical; conditions: relative to DMSO
Text: as §1, §2

PTPN7 (HePTP) = assay: Compound profiling, phosphatase panel (Eurofins); format: biochemical; conditions: relative to DMSO
Text: as §1, §2

PTPRC (CD45) = assay: Compound profiling, phosphatase panel (Eurofins); format: biochemical; conditions: relative to DMSO
Text: as §1, §2

VHR (DUSP3) = assay: Compound profiling, phosphatase panel (Eurofins); format: biochemical; conditions: relative to DMSO
Text: as §1, §2

HCT116 tumors = assay: HCT116 tumor xenograft in zebrafish embryos; format: in vivo; conditions: for primary tumor size at day 3 relative to day 0: 10 µM in water, three days (day 2 to day 5); for metastasis (tumor cells in caudal hematopoietic plexus): 10 µM, 3 dpi
Experimental: (§3) Implantation of HCT116 cells into zebrafish embryos were carried out essentially as previously described. Briefly, HCT116 cells were cultured in McCoy’s medium supplemented with 10% FCS and penicillin/streptomycin until ~80% confluence, then labeled for 30 min at 37 °C in 6 μg/mL 1,1′-dioctadecyl-3,3,3′,3′-tetramethylindocarbocyanine perchlorate (DiI, Sigma) in PBS followed by washing 3x in PBS. Labeled cells were implanted in the perivitelline space of 48 hours post-fertilization (hpf) wildtype (AB) zebrafish embryos, kept from the 1-cell stage in 1-phenyl-2-thiourea (PTU)-containing E3-water. […] As control, embryos were incubated in PTU-E3 with 0.1% DMSO (vehicle). Tumor-bearing embryos were incubated at 36 °C for three days and the change in tumor volume was evaluated as the size of the tumors at three days post-implantation (3 dpi) relative to the size immediately after implantation (0 dpi). Metastasis was evaluated at 3 dpi as the number of tumor cells present in the caudal hematopoietic plexus, the main metastatic site for tumors implanted in the perivitelline space.

zebrafish embryos = format: in vivo; conditions: 10 µM (effective dose)
Experimental: as §3

remaining activity (%) (DUSP22; UPD-795 1 µM): 92 ± 3%
remaining activity (%) (MKP5 (DUSP10); UPD-795 1 µM): 107 ± 1%
remaining activity (%) (PP2A; UPD-795 1 µM): 94 ± 1%
remaining activity (%) (PTPN1 (PTP1B); UPD-795 1 µM): 94 ± 7%
remaining activity (%) (PTPN11 (SHP-2); UPD-795 1 µM): 91 ± 14%
remaining activity (%) (PTPN2 (TCPTP); UPD-795 1 µM): 99 ± 2%
remaining activity (%) (PTPN22; UPD-795 1 µM): 98 ± 1%
remaining activity (%) (PTPN4 (MEG1); UPD-795 1 µM): 94 ± 1%
remaining activity (%) (PTPN6 (SHP-1); UPD-795 1 µM): 80 ± 3%
remaining activity (%) (PTPN7 (HePTP); UPD-795 1 µM): 87 ± 2%
remaining activity (%) (PTPRC (CD45); UPD-795 1 µM): 97 ± 2%
remaining activity (%) (VHR (DUSP3); UPD-795 1 µM): 108 ± 4%
SMILES: COc1cccc(SC2=CC(=O)c3cccc(O)c3C2=O)c1 [UPD-795, 2-(3-methoxyphenylthio)-8-hydroxynaphthalene-1,4-dione]

SMILES: O=C1C(c2ccc(O)cc2O)=CC(=O)c2c(O)cccc21 [UPD-176, 5-hydroxy-2-(2,4-dihydroxyphenyl)naphthalene-1,4-dione]
primary tumor size at day 3 relative to day 0 (HCT116 tumors): tendency towards tumor regression, although not significant
metastasis (tumor cells in caudal hematopoietic plexus) (HCT116 tumors): did not appear to be significant
tolerability / overt toxicity (zebrafish embryos): well tolerated

SMILES: O=C1C=C(c2ccc(O)cc2O)C(=O)c2c(O)cccc21 [UPD-140, 2-(2′,4′-dihydroxyphenyl)-8-hydroxy-1,4-naphthoquinone]
remaining activity (%) (DUSP22; UPD-140 1.5 µM): 90 ± 4%
remaining activity (%) (MKP5 (DUSP10); UPD-140 1.5 µM): 109%
remaining activity (%) (PP2A; UPD-140 1.5 µM): 95 ± 2%
remaining activity (%) (PTPN1 (PTP1B); UPD-140 1.5 µM): 95 ± 5%
remaining activity (%) (PTPN11 (SHP-2); UPD-140 1.5 µM): 96 ± 2%
remaining activity (%) (PTPN2 (TCPTP); UPD-140 1.5 µM): 87 ± 8%
remaining activity (%) (PTPN22; UPD-140 1.5 µM): 99 ± 5%
remaining activity (%) (PTPN4 (MEG1); UPD-140 1.5 µM): 87 ± 1%
remaining activity (%) (PTPN6 (SHP-1); UPD-140 1.5 µM): 78 ± 2%
remaining activity (%) (PTPN7 (HePTP); UPD-140 1.5 µM): 95%
remaining activity (%) (PTPRC (CD45); UPD-140 1.5 µM): 103 ± 2%
remaining activity (%) (VHR (DUSP3); UPD-140 1.5 µM): 106 ± 4%
primary tumor size at day 3 relative to day 0 (HCT116 tumors): reduced to approximately half the size of the initial volume
metastasis (tumor cells in caudal hematopoietic plexus) (HCT116 tumors): reduction in metastasis achieved borderline significance
tolerability / overt toxicity (zebrafish embryos): well tolerated
